Results on one molecule are retold here after patent US8513161B2, “Enhancement of plant growth” (Valent Biosciences Corporation, priority 2007, dated 2013).

Counter-ions that a name gives are not always drawn.

The test system of the assay is sorghum. Kind of assay: Field study, seed treatment of sorghum. The assay is classed as in vivo. Conditions: for root dry weight of a sample of 10 sorghum plants: 73 days after planting, control 148.5. As for the experimental part: For the field studies, the seed was treated with a seed treatment formulation containing clothianidin. The rate of clothianidin was dependent on the crop species. The seed treatment formulations were amended with the appropriate concentrations of either PESA or the sodium salt of PESA. Crops were planted and grown under standard agricultural practices, and evaluated at the times indicated. The sodium salt of PESA was prepared as described above, and was used in seed treatment either alone or in the presence of clothianidin. Sorghum seed was treated with 0 or 200 grams of clothianidin/100 kg (220 pound) of seed and with 0, 22, 55, or 137.5 grams PESA salt/100 kg seed.

Regarding `O=C(O)CCC(=O)NCCc1ccccc1` [PESA salt], the “root dry weight of a sample of 10 sorghum plants” value worked out at 183.5 grams (sodium salt of PESA 22 g/100 kg seed alone), 146.5 grams (sodium salt of PESA 55 g/100 kg seed alone) and 141.6 grams (sodium salt of PESA 137.5 g/100 kg seed alone). The “safening of sorghum” value (conclusion from Table 10) is given as “safened sorghum against clothianidin-induced root growth inhibition”.
